Measured values: patent US9809598B2 (Merck Patent GmbH, priority 2014, dated 2017)

Columns and labels:
[1] = target: T1, TNKS1 (Homo sapiens, UniProt O95271); assay: TNKS1 activity ELISA (autoparsylation assay); assay type: biochemical; settings: GST-tagged Tnks-1 (1023-1327 aa)
T1 construct: GST-tagged Tnks-1 (1023-1327 aa, prepared in-house); made in house
In short: (§1)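 GST-tagged TNKS1 or TNKS2 captured on glutathione plates and allowed to auto-PARsylate with biotinylated NAD with or without compound. Biotin-ADP-ribosylated enzyme detected by streptavidin-HRP and luminescence; IC50 relative to inhibitor-free reaction.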

[2] = target: T2, TNKS2 (Homo sapiens, UniProt Q9H2K2); assay: TNKS2 activity ELISA (autoparsylation assay); assay type: biochemical; settings: GST-tagged Tnks-2 (873-1166 aa); read-out: IC50 [M] TNKS2 ELISA
T2 construct: GST-tagged Tnks-2 (873-1166 aa, prepared in-house); made in house
In short: as §1

[3] = target: T3, PARP-1 (Homo sapiens, UniProt P09874); assay: PARP-1 autoparsylation assay (HTRF); assay type: biochemical; settings: His-tagged Parp-1, autoparsylation HTRF
T3 construct: purchased Enzo Life Sciences GmbH, Lörrach, Germany
In short: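 His-tagged enzyme auto-modifies itself using biotinylated NAD/NAD; product detected by TR-FRET between cryptate anti-His antibody and Xlent-streptavidin, as emission ratio.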

[4] = test system: Tankyrases; settings: read-out: EC50 [M] TNKS cellular assay; DLD1 cells, 24 hours, Axin2 increase

T3 sequence (P09874 whole entry): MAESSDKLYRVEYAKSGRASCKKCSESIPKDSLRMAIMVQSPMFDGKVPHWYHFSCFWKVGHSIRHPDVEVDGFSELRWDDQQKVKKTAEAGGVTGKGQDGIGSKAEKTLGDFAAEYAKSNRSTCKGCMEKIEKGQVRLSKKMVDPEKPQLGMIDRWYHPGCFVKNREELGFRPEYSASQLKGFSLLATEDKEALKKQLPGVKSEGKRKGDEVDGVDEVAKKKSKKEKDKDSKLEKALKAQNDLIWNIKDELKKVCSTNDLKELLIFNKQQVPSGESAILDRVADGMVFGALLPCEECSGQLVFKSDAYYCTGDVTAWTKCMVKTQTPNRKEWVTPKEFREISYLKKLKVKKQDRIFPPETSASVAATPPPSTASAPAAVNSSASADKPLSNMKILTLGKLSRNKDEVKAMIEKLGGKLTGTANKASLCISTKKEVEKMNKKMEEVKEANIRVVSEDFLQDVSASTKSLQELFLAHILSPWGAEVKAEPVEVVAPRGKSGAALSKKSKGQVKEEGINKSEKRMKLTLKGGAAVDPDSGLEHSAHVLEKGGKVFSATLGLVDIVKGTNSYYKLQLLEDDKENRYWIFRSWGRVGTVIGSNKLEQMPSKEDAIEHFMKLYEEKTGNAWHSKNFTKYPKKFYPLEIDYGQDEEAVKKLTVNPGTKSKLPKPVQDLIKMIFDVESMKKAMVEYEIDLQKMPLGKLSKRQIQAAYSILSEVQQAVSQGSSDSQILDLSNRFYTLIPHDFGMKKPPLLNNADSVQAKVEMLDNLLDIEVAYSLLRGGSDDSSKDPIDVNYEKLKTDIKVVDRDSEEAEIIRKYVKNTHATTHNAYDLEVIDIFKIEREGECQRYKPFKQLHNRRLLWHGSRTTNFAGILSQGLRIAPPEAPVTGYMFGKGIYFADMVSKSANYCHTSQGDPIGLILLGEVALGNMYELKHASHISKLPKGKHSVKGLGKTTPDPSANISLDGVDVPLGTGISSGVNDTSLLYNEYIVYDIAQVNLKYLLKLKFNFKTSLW
T2 sequence (Q9H2K2 873-1166): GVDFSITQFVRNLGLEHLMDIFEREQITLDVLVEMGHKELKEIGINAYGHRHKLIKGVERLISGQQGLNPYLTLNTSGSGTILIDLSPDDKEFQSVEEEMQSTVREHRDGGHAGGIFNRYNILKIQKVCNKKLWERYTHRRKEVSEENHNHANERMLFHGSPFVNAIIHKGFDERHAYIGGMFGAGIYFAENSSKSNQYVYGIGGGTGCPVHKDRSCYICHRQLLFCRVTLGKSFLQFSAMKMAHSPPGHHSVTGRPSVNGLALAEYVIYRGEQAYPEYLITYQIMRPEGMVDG
T1 sequence (O95271 1023-1327): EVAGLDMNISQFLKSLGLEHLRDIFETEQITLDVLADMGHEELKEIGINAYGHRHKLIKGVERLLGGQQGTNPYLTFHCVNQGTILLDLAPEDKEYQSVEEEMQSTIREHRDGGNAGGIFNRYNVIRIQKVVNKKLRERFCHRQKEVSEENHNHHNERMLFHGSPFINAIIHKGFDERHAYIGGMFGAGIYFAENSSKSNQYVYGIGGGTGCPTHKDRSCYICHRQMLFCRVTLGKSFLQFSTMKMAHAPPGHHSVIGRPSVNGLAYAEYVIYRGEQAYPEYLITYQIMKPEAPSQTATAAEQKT

Row | Compound | IC50 [1] [nM] | IC50 [2] [M] | IC50 [3] [nM] | EC50 [4] [M]
1 | Cn1ccc2c(=O)[nH]c(CCCC(=O)N3CCC(c4nnc(-c5ccccc5)o4)CC3)nc21 [Compound C184, 7-Methyl-2-{4-oxo-4-[4-(5-phenyl-[1,3,4]oxadiazol-2-yl)-piperidin-1-yl]-butyl}-3,7-dihydro-pyrrolo[2,3-d]pyrimidin-4-one] | 4.7 | 2.5e-09 | 1900 | 4.7e-07
2 | Cc1csc2c(=O)[nH]c(CCCC(=O)N3CCC(C(=O)c4cnn(C)c4)CC3)nc12 [Compound C135, 7-Methyl-2-{4-[4-(1-methyl-1H-pyrazole-4-carbonyl)-piperidin-1-yl]-4-oxo-butyl}-3H-thieno[3,2-d]pyrimidin-4-one] | 0.49 | 4.7e-10 | 420 | 3.9e-08
3 | Cc1ccc2c(=O)[nH]c(CCCC(=O)N3CCC(C(=O)c4ccc(F)cc4)CC3)nn12 [Compound C153, 2-{4-[4-(4-Fluoro-benzoyl)-piperidin-1-yl]-4-oxo-butyl}-7-methyl-3H-pyrrolo[2,1-f][1,2,4]triazin-4-one] | 0.17 | 1.6e-10 | 2000 | 1.7e-09
4 | Cc1scc2c(=O)[nH]c(CCCC(=O)N3CCC(c4nnc(-c5ccccc5)o4)CC3)nc12 [Compound C117, 7-Methyl-2-{4-oxo-4-[4-(5-phenyl-[1,3,4]oxadiazol-2-yl)-piperidin-1-yl]-butyl}-3H-thieno[3,4-d]pyrimidin-4-one] | 8.2 | 5.7e-09 | 820 | 1.3e-07
5 | Cn1ncc2c(=O)[nH]c(CCCC(=O)N3CCC(C(=O)c4ccc(Cl)cc4)CC3)nc21 [Compound C236, 6-{4-[4-(4-Chloro-benzoyl)-piperidin-1-yl]-4-oxo-butyl}-1-methyl-1,5-dihydro-pyrazolo[3,4-d]pyrimidin-4-one] | 0.48 | 2.4e-10 | 10000 | 2.1e-08
6 | Cc1cc2c(=O)[nH]c(CCCC(=O)N3CCC(C(=O)c4ccc(C(C)(C)O)cc4)CC3)nn2c1 [Compound C166, 2-(4-{4-[4-(1-Hydroxy-1-methyl-ethyl)-benzoyl]-piperidin-1-yl}-4-oxo-butyl)-6-methyl-3H-pyrrolo[2,1-f][1,2,4]triazin-4-one] | 12 | 1.7e-08 | 1400 | 1.8e-07
7 | Cn1cc(C(=O)C2CCN(C(=O)CCCc3nc4c(ccn4C)c(=O)[nH]3)CC2)cn1 [Compound C190, 7-Methyl-2-{4-[4-(1-methyl-1H-pyrazole-4-carbonyl)-piperidin-1-yl]-4-oxo-butyl}-3,7-dihydro-pyrrolo[2,3-d]pyrimidin-4-one] | 0.71 | 3.2e-10 | 870 | 1.9e-07
8 | Cc1ccc2c(=O)[nH]c(CCCC(=O)N3CCC(C(=O)c4cnn(C)c4)CC3)cn12 [Compound C62, 6-Methyl-3-{4-[4-(1-methyl-1H-pyrazole-4-carbonyl)-piperidin-1-yl]-4-oxo-butyl}-2H-pyrrolo[1,2-a]pyrazin-1-one] | 0.16 | 1.2e-10 | 800 | 3.5e-09
9 | COc1ccc(C(=O)C2CCN(C(=O)CCCc3nn4cccc4c(=O)[nH]3)CC2)cc1C [Compound C143, 2-{4-[4-(4-Methoxy-3-methyl-benzoyl)-piperidin-1-yl]-4-oxo-butyl}-3H-pyrrolo[2,1-f][1,2,4]triazin-4-one] | 0.19 | 1.6e-10 | 4800 | 1.7e-09
10 | O=C(CCCc1cn2cccc2c(=O)[nH]1)N1CCC(c2nnc(-c3ccccc3)o2)CC1 [Compound C6, 3-{4-Oxo-4-[4-(5-phenyl-[1,3,4]oxadiazol-2-yl)-piperidin-1-yl]-butyl}-2H-pyrrolo[1,2-a]pyrazin-1-one] | 1.9 | 1.3e-09 | 3700 | 2.8e-08
11 | Cc1cc2c(=O)[nH]c(CCCC(=O)N3CCC(Oc4ccc(C#N)cc4)CC3)nn2c1 [Compound C163, 4-{1-[4-(6-Methyl-4-oxo-3,4-dihydro-pyrrolo[2,1-f][1,2,4]triazin-2-yl)-butyryl]-piperidin-4-yloxy}-benzonitrile] | 21 | 2.5e-08 | 1300 | 2e-07
12 | Cc1ccc2c(=O)[nH]c(CCCC(=O)N3CCC(c4cnc(N)c(-c5ncccn5)c4)CC3)nn12 [Compound C150, 2-[4-(6-Amino-5-pyrimidin-2-yl-3′,4′,5′,6′-tetrahydro-2′H-[3,4′]bipyridinyl-1′-yl)-4-oxo-butyl]-7-methyl-3H-pyrrolo[2,1-f][1,2,4]triazin-4-one] | 0.23 | 2.8e-10 | 1300 | 1.1e-09
13 | CCn1cc(C(=O)C2CCN(C(=O)CCCc3nc4c(C)scc4c(=O)[nH]3)CC2)cn1 [Compound C216, 2-{4-[4-(1-Ethyl-1H-pyrazole-4-carbonyl)-piperidin-1-yl]-4-oxo-butyl}-7-methyl-3H-thieno[3,4-d]pyrimidin-4-one] | 2.5 | 1.3e-09 | 1500 | 5.2e-08
14 | Cc1ccc2c(=O)[nH]c(CCCC(=O)N3CCC(C(=O)c4ccc(C(C)(C)O)cc4)CC3)nn12 [Compound C155, 2-(4-{4-[4-(1-Hydroxy-1-methyl-ethyl)-benzoyl]-piperidin-1-yl}-4-oxo-butyl)-7-methyl-3H-pyrrolo[2,1-f][1,2,4]triazin-4-one] | 0.57 | 3.8e-10 | 600 | 1.6e-08
15 | Cn1cc(C(=O)C2CCN(C(=O)CCCc3cn4cc(F)cc4c(=O)[nH]3)CC2)cn1 [Compound C78, 7-Fluoro-3-{4-[4-(1-methyl-1H-pyrazole-4-carbonyl)-piperidin-1-yl]-4-oxo-butyl}-2H-pyrrolo[1,2-a]pyrazin-1-one] | 0.24 | 1.6e-10 | 1200 | 2.9e-09
16 | Cc1cc2c(=O)[nH]c(CCCC(=O)N3CCC(C(=O)c4cnn(C)c4)CC3)nn2c1 [Compound C168, 6-Methyl-2-{4-[4-(1-methyl-1H-pyrazole-4-carbonyl)-piperidin-1-yl]-4-oxo-butyl}-3H-pyrrolo[2,1-f][1,2,4]triazin-4-one] | 1 | 3.5e-09 | 5800 | 3.4e-08
17 | Cc1scc2c(=O)[nH]c(CCCC(=O)N3CCC(C(=O)c4cnn(C(C)C)c4)CC3)nc12 [Compound C226, 2-{4-[4-(1-Isopropyl-1H-pyrazole-4-carbonyl)-piperidin-1-yl]-4-oxo-butyl}-7-methyl-3H-thieno[3,4-d]pyrimidin-4-one] | 1.6 | 9.5e-10 | 1800 | 2.5e-08
18 | Cc1ccc(C(=O)C2CCN(C(=O)CCCc3nn4cccc4c(=O)[nH]3)CC2)cc1 [Compound C235, 2-{4-[4-(4-Methyl-benzoyl)-piperidin-1-yl]-4-oxo-butyl}-3H-pyrrolo[2,1-f][1,2,4]triazin-4-one] | 0.57 | 3.9e-10 | 3000 | 3.9e-09
19 | COc1ccc(C(=O)C2CCN(C(=O)CCCc3nn4c(C)ccc4c(=O)[nH]3)CC2)cc1F [Compound C147, 2-{4-[4-(3-Fluoro-4-methoxy-benzoyl)-piperidin-1-yl]-4-oxo-butyl}-7-methyl-3H-pyrrolo[2,1-f][1,2,4]triazin-4-one] | < 0.1 | < 1e-10 | 370 | 8.1e-10
20 | Cn1ncc2c(=O)[nH]c(CCCC(=O)N3CCC(C(=O)c4ccc(C(C)(C)O)cc4)CC3)nc21 [Compound C50, 6-{4-{4-[4-(1-Hydroxy-1-methyl-ethyl)benzoyl]-1-piperidyl}-4-oxo-butyl}-1-methyl-5H-pyrazolo[3,4-d]pyrimidin-4-one] | 11 | 4e-09 | 23000 | 3.8e-07
21 | Cc1csc2c(=O)[nH]c(CCCC(=O)N3CCC(C(=O)c4cnn(C(C)C)c4)CC3)nc12 [Compound C225, 2-{4-[4-(1-Isopropyl-1H-pyrazole-4-carbonyl)-piperidin-1-yl]-4-oxo-butyl}-7-methyl-3H-thieno[3,2-d]pyrimidin-4-one] | 0.73 | 4e-10 | 700 | 1.4e-08
22 | COc1ccc(C(=O)C2CCN(C(=O)CCCc3nc4c(c(=O)[nH]3)COCC4)CC2)cn1 [Compound C193, 2-{4-[4-(6-Methoxy-pyridine-3-carbonyl)-piperidin-1-yl]-4-oxo-butyl}-3,5,7,8-tetrahydro-pyrano[4,3-d]pyrimidin-4-one] | 7.4 | 2.6e-09 | 8000 | 1e-07
23 | Cc1cc2c(=O)[nH]c(CCCC(=O)N3CCC(C(=O)c4cnn(C(C)C)c4)CC3)nn2c1 [Compound C220, 2-{4-[4-(1-Isopropyl-1H-pyrazole-4-carbonyl)-piperidin-1-yl]-4-oxo-butyl}-6-methyl-3H-pyrrolo[2,1-f][1,2,4]triazin-4-one] | 4.2 | 3.7e-09 | 6200 | 4e-08
24 | COc1ccc(C(=O)C2CCN(C(=O)CCCc3nn4cc(F)cc4c(=O)[nH]3)CC2)cn1 [Compound C170, 6-Fluoro-2-{4-[4-(6-methoxy-pyridine-3-carbonyl)-piperidin-1-yl]-4-oxo-butyl}-3H-pyrrolo[2,1-f][1,2,4]triazin-4-one] | 0.67 | 9.9e-10 | 2800 | 1.9e-08
